From patent US7825270B2, “Inositolphospholipids and analogues: phosphatidylinositol products and processes” (Nutrimed Biotech, priority 2005, dated 2010)

Legend:
[1] = system: epithelial cell proliferation; conditions: cited from earlier work
[2] = solubility in organic solvents; type: physicochemical; conditions: alcohol, acetone, ethyl acetate or methanol
HDL-C levels = conditions: administration of PI, humans; cited from earlier work

D-myo-inositol 4-(hexadecyloxy)-3(S)methoxy-butane-phosphonate
inhibition of epithelial cell proliferation [1]: inhibit epithelial cell proliferation

Soy PI-2,3,4,5,6-penta-O-tetrahydropyranyl ether
solubility in solvents [2]: dissolved easily

phosphatidylinositol [PI]
effect on HDL-C levels (HDL-C levels): raises HDL-C levels
